Test results: ChEMBL document CHEMBL4818988, “Structure-Activity Relationships for the Marine Natural Product Sintokamides: Androgen Receptor N-Terminus Antagonists of Interest for Treatment of Metastatic Castration-Resistant Prostate Cancer” (J Nat Prod, 2021)
Values belong to the compound of their own block, whether it stands above or below them. The source made the active and inactive calls. The rule behind the calls is not given here.

Experiments:
[1] = target: T1, Androgen receptor (Homo sapiens) (UniProt P10275); assay: Antagonist activity at AR in human LNCaP cells transfected with PSA assessed as inhibition of R1881-induced PSA luciferase activity pretreated with compound followed by R1881 addition at 10 uM and measured after 48 hrs by luciferase assay; type: cell-based
T1 sequence (whole entry): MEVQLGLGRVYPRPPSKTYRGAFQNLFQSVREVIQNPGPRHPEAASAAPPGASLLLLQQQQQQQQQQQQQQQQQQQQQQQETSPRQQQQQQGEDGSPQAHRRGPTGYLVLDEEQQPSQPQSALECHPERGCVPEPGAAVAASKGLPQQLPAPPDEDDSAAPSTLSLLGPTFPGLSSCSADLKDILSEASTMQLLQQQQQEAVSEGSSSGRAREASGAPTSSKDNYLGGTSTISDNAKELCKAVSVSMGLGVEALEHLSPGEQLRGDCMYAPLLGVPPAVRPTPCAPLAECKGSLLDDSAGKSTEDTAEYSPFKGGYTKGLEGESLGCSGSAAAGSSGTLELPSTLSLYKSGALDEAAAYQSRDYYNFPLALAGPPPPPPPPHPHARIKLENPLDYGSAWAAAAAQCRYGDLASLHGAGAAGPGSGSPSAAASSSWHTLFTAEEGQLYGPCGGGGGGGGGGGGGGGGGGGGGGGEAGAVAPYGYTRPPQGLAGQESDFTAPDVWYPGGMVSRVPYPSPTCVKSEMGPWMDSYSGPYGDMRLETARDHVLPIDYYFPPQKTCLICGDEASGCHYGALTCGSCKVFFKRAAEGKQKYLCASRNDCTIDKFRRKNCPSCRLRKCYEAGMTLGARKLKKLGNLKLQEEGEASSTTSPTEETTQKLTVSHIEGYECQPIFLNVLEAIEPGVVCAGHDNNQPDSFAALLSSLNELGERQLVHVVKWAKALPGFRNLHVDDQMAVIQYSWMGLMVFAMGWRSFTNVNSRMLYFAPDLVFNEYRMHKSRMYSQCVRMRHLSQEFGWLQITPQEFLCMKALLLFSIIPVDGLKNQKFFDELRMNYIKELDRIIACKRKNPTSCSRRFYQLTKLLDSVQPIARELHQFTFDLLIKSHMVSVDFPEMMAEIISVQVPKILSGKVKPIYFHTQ

[2] = target: T1, Androgen receptor (Homo sapiens); assay: Antagonist activity at AR in human LNCaP cells transfected with PSA assessed as inhibition of R1881-induced PSA luciferase activity pretreated with compound followed by R1881 addition at 25 uM and measured after 48 hrs by luciferase assay; type: cell-based
[3] = target: T1, Androgen receptor (Homo sapiens); assay: Antagonist activity at AR in human LNCaP cells transfected with PSA assessed as inhibition of R1881-induced PSA luciferase activity pretreated with compound followed by R1881 addition at 50 uM and measured after 48 hrs by luciferase assay; type: cell-based
[4] = target: T1, Androgen receptor (Homo sapiens); assay: (§1) Antagonist activity at AR in human LNCaP cells transfected with PSA assessed as inhibition of R1881-induced PSA luciferase activity pretreated with compound followed by R1881 addition and measured after 48 hrs by luciferase assay; type: cell-based; conditions: filed as antagonist
[5] = target: T1, Androgen receptor (Homo sapiens); assay: Antagonist activity at AR in human LNCaP cells transfected with PSA assessed as inhibition of R1881-induced PSA luciferase activity pretreated with compound followed by R1881 addition at 5 uM and measured after 48 hrs by luciferase assay; type: cell-based
[6] = target: T1, Androgen receptor (Homo sapiens); assay: Antagonist activity at AR in human LNCaP cells transfected with PSA assessed as inhibition of R1881-induced PSA luciferase activity pretreated with compound followed by R1881 addition at 15 uM and measured after 48 hrs by luciferase assay; type: cell-based
[7] = target: T1, Androgen receptor (Homo sapiens); assay: Antagonist activity at AR in human LNCaP cells transfected with PSA assessed as inhibition of R1881-induced PSA luciferase activity pretreated with compound followed by R1881 addition at 35 uM and measured after 48 hrs by luciferase assay; type: cell-based
Androgen receptor = target: T2, Androgen receptor (Homo sapiens, UniProt P10275); assay: as §1; type: cell-based
T2 sequence (P10275 whole entry): T1 sequence (whole entry)

PC-3 = assay: Cytotoxicity against human PC3 cells assessed as reduction in cell viability after 72 hrs by Alamar blue assay; type: functional, cell-based; conditions: PC-3, 72 h
DU-145 = assay: Cytotoxicity against human DU145 cells assessed as reduction in cell viability after 72 hrs by Alamar blue assay; type: functional, cell-based; conditions: DU-145, 72 h

Structure (SMILES): CCC(=O)N[C@H](CCCCl)C(=O)N1C(=O)C=C(OC)[C@@H]1CCCCl
Activity [1]: inactive
Activity [2]: inactive
Activity [3]: inactive

Structure (SMILES): CCC(=O)N[C@H](CCC(Cl)Cl)C(=O)N1C(=O)C=C(OC)[C@H]1CCC(Cl)Cl
Activity [4]: Dose-Dependent Effect

Structure (SMILES): CCC(=O)N[C@H](CCC(Cl)(Cl)Cl)C(=O)N1C(=O)C=C(OC)[C@H]1CCC(Cl)(Cl)Cl
Activity [4]: Dose-Dependent Effect

Structure (SMILES): CCC(=O)N[C@H](C[C@H](C)C(Cl)(Cl)Cl)C(=O)N1C(=O)C=C(OC)[C@@H]1C[C@H](C)C(Cl)(Cl)Cl
Activity ([5]; filed as antagonist): Active
Activity ([1]; filed as antagonist): Active

Structure (SMILES): CCC(=O)N[C@H](CCC(Cl)Cl)C(=O)N1C(=O)C=C(OC)[C@@H]1CCC(Cl)Cl
Activity [4]: Dose-Dependent Effect

Activity [5]: inactive
Activity [6]: inactive
Activity [7]: inactive
Structure (SMILES): CCC(=O)N[C@H](CC(C)C)C(=O)N1C(=O)C=C(OC)[C@@H]1CC(C)C

Structure (SMILES): CCC(=O)N[C@H](CCC(Cl)(Cl)Cl)C(=O)N1C(=O)C=C(OC)[C@@H]1CCC(Cl)(Cl)Cl
Activity [4]: Dose-Dependent Effect

Structure (SMILES): CCC(=O)N[C@H](C[C@H](C)C(Cl)(Cl)Cl)C(=O)N1C(=O)C=C(OC)[C@@H]1C[C@H](C)C(Cl)Cl
Activity ([5]; filed as antagonist): Active
Activity ([1]; filed as antagonist): Active
IC50 (Androgen receptor): 6.5 µM
IC50 (PC-3): 29 µM
IC50 (DU-145): > 35 µM
